Reference: ChEMBL document CHEMBL3877281, “Extending the structure-activity relationship study of marine natural ningalin B analogues as P-glycoprotein inhibitors” (Eur J Med Chem, 2017)
pEC50: −log10 of the molar value.

Experiments:
Homo sapiens [1] = organism: Homo sapiens; assay: Inhibition of P-gp in human MDA435/LCC6MDR cells assessed as potentiation of paclitaxel-induced cytotoxicity at 1 uM measured after 5 days by Cell Titer 96 Aqueous assay relative to paclitaxel alone; type: cell-based
[2] = Cytotoxicity against mouse L929 cells measured after 3 days by MTS assay; type: toxicity
Homo sapiens [3] = organism: Homo sapiens; assay: Potency index, ratio of EC50 for verapamil to EC50 for test compound for inhibition of P-gp in human MDA435/LCC6MDR cells assessed as reduction of paclitaxel cytotoxic IC50 by half; type: cell-based
Homo sapiens [4] = organism: Homo sapiens; assay: Potency index, ratio of EC50 for verapamil to EC50 for test compound for inhibition of P-gp in human MDA435/LCC6MDR cells assessed as reduction of vincristine cytotoxic IC50 by half; type: cell-based
P-gp [5] = assay: Selectivity index, ratio of IC50 for cytotoxicity against mouse L929 cells to EC50 for inhibition of P-gp in human MDA435/LCC6MDR cells assessed as reduction of vinblastine cytotoxic IC50 by half; type: toxicity, cell-based; details: probe vinblastine, read-out: Ratio IC50/EC50
Homo sapiens [6] = organism: Homo sapiens; assay: Inhibition of P-gp in human MDA435/LCC6MDR cells assessed as increase in doxorubicin accumulation at 2 uM measured after 150 mins by fluorescence spectrophotometric method relative to control; type: cell-based
Homo sapiens [7] = organism: Homo sapiens; assay: Potency index, ratio of EC50 for verapamil to EC50 for test compound for inhibition of P-gp in human MDA435/LCC6MDR cells assessed as reduction of vinblastine cytotoxic IC50 by half; type: cell-based
[8] = Inhibition of P-gp in human MDA435/LCC6MDR cells assessed as reduction of doxorubicin cytotoxic IC50 by half after 5 days by Cell Titer 96 Aqueous assay; type: cell-based; details: 120 h
P-gp [9] = assay: Selectivity index, ratio of IC50 for cytotoxicity against mouse L929 cells to EC50 for inhibition of P-gp in human MDA435/LCC6MDR cells assessed as reduction of paclitaxel cytotoxic IC50 by half; type: toxicity, cell-based; details: probe paclitaxel, read-out: Ratio IC50/EC50
[10] = Inhibition of P-gp in human MDA435/LCC6MDR cells assessed as reduction of vincristine cytotoxic IC50 by half measured after 5 days by Cell Titer 96 Aqueous assay; type: cell-based; details: 120 h
P-gp [11] = assay: Selectivity index, ratio of IC50 for cytotoxicity against mouse L929 cells to EC50 for inhibition of P-gp in human MDA435/LCC6MDR cells assessed as reduction of vincristine cytotoxic IC50 by half; type: toxicity, cell-based; details: probe vincristine, read-out: Ratio IC50/EC50
[12] = Inhibition of P-gp in human MDA435/LCC6MDR cells assessed as reduction of vinblastine cytotoxic IC50 by half measured after 5 days by Cell Titer 96 Aqueous assay; type: cell-based; details: 120 h
P-gp [13] = assay: Selectivity index, ratio of IC50 for cytotoxicity against mouse L929 cells to EC50 for inhibition of P-gp in human MDA435/LCC6MDR cells assessed as reduction of doxorubicin cytotoxic IC50 by half; type: toxicity, cell-based; details: probe doxorubicin, read-out: Ratio IC50/EC50
Homo sapiens [14] = organism: Homo sapiens; assay: Potency index, ratio of EC50 for verapamil to EC50 for test compound for inhibition of P-gp in human MDA435/LCC6MDR cells assessed as reduction of doxorubicin cytotoxic IC50 by half; type: cell-based
Homo sapiens [15] = organism: Homo sapiens; assay: Potency index, ratio of compound effect to verapamil effect for inhibition of P-gp in human MDA435/LCC6MDR cells assessed as increase in rhodamine-123 accumulation; type: cell-based
[16] = Inhibition of P-gp in human MDA435/LCC6MDR cells assessed as increase in doxorubicin accumulation to half of parental LCC6 cells measured after 150 mins by fluorescence spectrophotometric method; type: cell-based; details: MDA-435/LCC6, 2.5 h
[17] = Inhibition of P-gp in human MDA435/LCC6MDR cells assessed as reduction of paclitaxel cytotoxic IC50 by half measured after 5 days by Cell Titer 96 Aqueous assay; type: cell-based; details: 120 h
Homo sapiens [18] = organism: Homo sapiens; assay: Inhibition of P-gp in human MDA435/LCC6MDR cells assessed as increase in rhodamine-123 accumulation at 2 uM measured after 150 mins by fluorescence spectrophotometric method relative to control; type: cell-based

Compound	fold change (FC) (Homo sapiens [1])	also measured
COc1ccc(C2=C(c3ccc(OC)c(OCc4ccccc4)c3)C(=O)N(Cc3cc(OC)c(OC)c(OC)c3)C2=O)cc1OC	11.9	–
COc1ccc(C2=C(c3ccc(C)cc3)C(=O)N(CC(=O)c3ccc(S(C)(=O)=O)cc3)C2=O)cc1OC	2	–
COc1ccc(C2=C(c3ccc(OC)c(OC)c3)C(=O)N(Cc3ccc(S(C)(=O)=O)cc3)C2=O)cc1OC	3.4	–
COc1ccc(C2=C(c3ccc(OC)c(OC)c3)C(=O)N(Cc3ccc(OCc4ccccc4)c(OC)c3)C2=O)cc1OC	9.3	–
COc1ccc(C2=C(c3ccc(OC)c(OC)c3)C(=O)N(Cc3cc(OC)c(OC)c(OC)c3)C2=O)cc1OC	13.8	–
COc1ccc(C(=O)CN2C(=O)c3ccccc3C2=O)cc1	1.3	–
COc1ccc(C(=O)CN2C(=O)C(c3ccc(OC)c(OC)c3)=C(c3ccc(OCc4ccccc4)c(OC)c3)C2=O)cc1	4.5	–
COc1ccc(C(=O)CN2C(=O)C(c3ccccc3)=C(c3ccc(OC)c(OC)c3)C2=O)cc1	2.6	–
COc1ccc(C2=C(c3ccc(OC)c(OC)c3)C(=O)N(Cc3ccc(OCc4ccccc4)cc3)C2=O)cc1OC	4.2	–
COc1ccc(C2=C(c3ccc(OC)c(OC)c3)C(=O)N(CC(=O)c3ccc(OCc4ccccc4)c(OC)c3)C2=O)cc1	22.1	–
COc1ccc(C(=O)CN2C(=O)C(c3ccc(OC)cc3)=C(c3ccc(OC)c(OC)c3)C2=O)cc1	2.7	–
COc1ccc(C2=C(c3ccccc3)C(=O)N(CC(=O)c3ccc(OCc4ccccc4)c(OC)c3)C2=O)cc1OC	5.9	–
COc1ccc(C2=C(SC)C(=O)N(CC(=O)c3ccc(OCc4ccccc4)c(OC)c3)C2=O)cc1OC	1.4	–
COc1cccc(C2=C(c3ccc(OC)c(OC)c3)C(=O)N(Cc3cc(OC)c(OC)c(OC)c3)C2=O)c1	11.4	–
COc1cc(C(=O)CN2C(=O)c3ccccc3C2=O)ccc1OCc1ccccc1	1.1	–
COc1ccc(C2=C(c3ccc(OCc4ccccc4)c(OC)c3)C(=O)N(CC(=O)c3ccc(OCc4ccccc4)c(OC)c3)C2=O)cc1OC	1.4	–
COc1cccc(C2=C(c3ccc(OC)c(OC)c3)C(=O)N(CC(=O)c3ccc(OCc4ccccc4)c(OC)c3)C2=O)c1	8.8	–
COc1ccc(CCN(C)CCCC(C#N)(c2ccc(OC)c(OC)c2)C(C)C)cc1OC (stereo unspecified) [VERAPAMIL]	–	IC50 at 3 days [2]: 89 µM
COc1ccc(C(=O)CN2C(=O)C(c3cccc(OC)c3)=C(c3ccc(OC)c(OC)c3)C2=O)cc1	3.5	–
COc1ccc(C2=C(c3ccccc3)C(=O)N(Cc3cc(OC)c(OC)c(OC)c3)C2=O)cc1OC	7.1	–
COc1ccc(C2=C(c3ccc(OC)c(OC)c3)C(=O)N(CC(=O)c3ccc(OCc4ccccc4)c(OC)c3)C2=O)cc1OC	39.8	–
COc1ccc(C2=C(c3ccc(OC)c(OC)c3)C(=O)N(Cc3cc(OC)c(OC)c(OC)c3)C2=O)cc1	5.1	–
COc1ccc(C2=C(c3ccc(OC)c(OC)c3)C(=O)N(CC(=O)c3ccc(S(C)(=O)=O)cc3)C2=O)cc1OC	1.4	–
COc1ccc(C2=C(c3ccc(C)cc3)C(=O)N(CC(=O)c3ccc(OCc4ccccc4)c(OC)c3)C2=O)cc1OC	8.6	–
COc1ccc(C2=C(c3ccc(C)cc3)C(=O)N(Cc3ccc(S(C)(=O)=O)cc3)C2=O)cc1OC	3	–
COc1ccc(C2=C(c3ccc(OC)c(OC)c3)C(=O)N(CC(=O)c3ccc(OCc4cc(OC)c(OC)c(OC)c4Br)c(OC)c3)C2=O)cc1OC	48	Ratio EC50 (Homo sapiens [3]): 2 to 3.7; Ratio EC50 (Homo sapiens [4]): 2 to 3.7; selectivity ratio (P-gp [5]): > 730; fold change (FC) (Homo sapiens [6]): 2.4; Ratio EC50 (Homo sapiens [7]): 2 to 3.7; pEC50 [8]: 6.92; selectivity ratio (P-gp [9]): > 606; pEC50 [10]: 6.88; selectivity ratio (P-gp [11]): > 758; pEC50 [12]: 6.86; selectivity ratio (P-gp [13]): > 833; IC50 at 3 days [2]: > 100 µM; Ratio EC50 (Homo sapiens [14]): 2 to 3.7; Ratio (Homo sapiens [15]): 1.7; pEC50 [16]: 7.11; pEC50 [17]: 6.78; fold change (FC) (Homo sapiens [18]): 4.8
COc1ccc(C(=O)CN2C(=O)C(c3ccc(OC)c(OC)c3)=C(c3ccc(OC)c(OC)c3)C2=O)cc1	7.6	–
COc1ccc(C2=CC(=O)N(CC(=O)c3ccc(OCc4ccccc4)c(OC)c3)C2=O)cc1OC	1.4	–
COc1cc(CN2C(=O)c3ccccc3C2=O)cc(OC)c1OC	1.2	–
